Columns and labels:
MDA-MB-231 cells [1] = assay: GI50 panel (MTT assay), MDA-MB-231; format: cell-based
SKOV-3 cells [2] = assay: GI50 panel (MTT assay), SKOV-3; format: cell-based
SK-Br-3 cells = assay: GI50 panel (MTT assay), SK-BR-3; format: cell-based
NCI-N87 cells = assay: GI50 panel (MTT assay), NCI-N87; format: cell-based
OE-19 cells = assay: GI50 panel (MTT assay), OE19; format: cell-based
MDA-MB-231 cells [3] = assay: Cytotoxicity alamarBlue assay, MDA-MB-231 (HER2 lo); format: cell-based; conditions: 48 h; for Cell viability %: mean ± sd, n=4
Experimental: (§1) The cytotoxicity of Compound 71 (control) and Compound 123 (targeted) toward MDA-MB-231, and MDA-MB-231/HER2 transfected cells were evaluated via alamarBlue assays. Cells were seeded at a density of 5×10^3, in 96-well plates and incubated overnight. Cells were then treated with indicated concentrations of test compositions for 48 h. AlamarBlue (Thermo Fisher, DAL1025) was added during the final 4 h of incubation. Reduction of alamarBlue in living cells yields a red fluorescent metabolite that can be read on a plate reader (560 nm excitation/610 nm emission). Cell viability and subsequent IC50 was determined from the blank corrected dose-response curves, with 4-parameter nonlinear nonlinear curve fit, variable slope (four parameters) in GraphPad Prism 7.02. […] Compound 123 (targeted) is approximately 140-fold increase in MDA-MB-231/HER2 cell growth inhibition compared to Compound 71 (control).

[4] = test system: MDA-MB-231/HER2 transfected cells; assay: Cytotoxicity alamarBlue assay, MDA-MB-231/HER2 (HER2 hi); format: cell-based; conditions: 48 h; for Cell viability %: mean ± sd, n=4
Experimental: MDA-MB-231 breast cancer cells were transfected with plasmid HER2 WT Addgene, 16257) using Lipofectamine 3000 according to manufacturer's instructions. After passaging in the presence of 500 μg/ml Geneticin (Thermo Fisher, catalogue 10131035), cells with stable overexpression of HER2 WT were isolated by fluorescence activated single cell sorting using a MoFlo Astrios (Beckman Coulter). A clonal cell population isolated from this process was further passaged in Geneticin before a second round of cell sorting and screening for transgene expression. A selected clone was then further expanded and stocks of this cell line, referred to as MDA-MB-231/HER2, were cryopreserved to generate a master stock of stably transduced cells.
as §1

[5] = test system: MDA-MB-231 cells (HER2 lo); assay: In vitro association study (flow cytometry), MDA-MB-231; format: cell-based, human; conditions: MDA-MB-231, over 24 h, result in words
[6] = test system: MDA-MB-231/HER2 (HER2 knock in) cells; assay: In vitro association study (flow cytometry), MDA-MB-231/HER2; format: cell-based, human
SKOV-3 cells [7] = assay: In vitro association study (flow cytometry), SKOV-3; format: cell-based, human
Experimental: The HER2-expressing human metastatic carcinoma cell line MDA-MB-453 (ATCC HTB-131) and the HER2-lo epithelial adenocarcinoma cell line MDA-MB-231 (ATCC HTB-26) were maintained in Dulbecco's Modified Eagle's Medium (DMEM) containing 10% FBS and penicillin-streptomycin (100 U/mL) at 37° C. under a 5% CO2 humidified atmosphere and subcultured prior to confluence using trypsin. Human adenocarcinoma ovary cell line SKOV-3 (ATCC® HTB-77) cells were maintained in RPMI media with the addition of 10% (v/v) FBS and penicillin-streptomycin (100 U/mL) at 37° C. in a 5% CO2 humidified atmosphere and subcultured prior to confluence.
MDA-MB-231, MDA-MB-231/HER2 (HER2 knock in) (as described in Ex 6 above), or SKOV-3 cells were seeded in a 24-well plate (1×10^5 cells per well) in 500 μL of appropriate growth media with the addition of 10% (v/v) fetal bovine serum (FBS) and incubated with Compound 36 or Compound 41 at 3.33 nM, with incubation time varied from 1 to 24 h at 37° C. in a 5% CO2 humidified atmosphere. […] Cellular binding and association of sample were then determined through flow cytometry by the acquisition of the signal from Cy5.
To measure internalisation kinetics, nanobody-dendrimer was incubated with cells for 24, 4, 1, 0.5, and 0.1 hours at 37° C. before unbound nanobody-dendrimer was removed by washing and analysed by flow cytometry.

MDA-MB-231 cells [8] = assay: Confocal cellular uptake, MDA-MB-231; format: cell-based; conditions: MDA-MB-231, 3.33 nM, 24 h
Experimental: MDA-MB-231, MDA-MB-231/HER2 and SKOV-3 cells were plated at 1.0×10^4 cells per well into μ-slide 8-well chambered coverslip (ibidi) and allowed to adhere overnight at 37° C., 5% CO2. Compound 71 and Compound 123 (3.33 nM) were then added and allowed to incubate for 1, 3, 6, and 24 h. The cells were washed and then fixed with 1% paraformaldehyde for 20 min at room temperature. The cell membrane was stained with Alexa Fluor 488-wheat germ agglutinin (AF488-WGA, 5 μg mL^−1) in DPBS at room temperature for 10 min. The cell nuclei were counterstained with 4′,6-diamidino-2-phenylindole (DAPI, 2 μg mL^−1) in DPBS at room temperature for 10 min. Fluorescence images and optical sections were collected using a confocal microscope (Leica SP8). Images were processed with Fiji (Image J 1.52n).

BT474 tumours = assay: Radiotherapeutic efficacy (177Lu) in BT474 xenograft model; format: in vivo, Balb/c nude mice; conditions: 177Lu-labelled test articles, IV
Experimental: Healthy in female Balb/c nude mice (aged 9 weeks) were obtained from the Animal Resource Centre, Western Australia. A total of four mice per dosing group were initially implanted with estrogen pellets (17Beta-estradiol 0.72 mg/pellet 60 Day Release; Innovative Research of America) and then on day 2 were innoculated subcutaneously in the breast mammary fat pad with 10×10^6 BT474 cells in PBS:Matrigel (1:1). Mice were weighed, and tumours measured 2-3 times weekly using electronic callipers. Tumour volume (mm^3) were calculated as ((length (mm)×((width (mm))^2)/2. Mice were randomised into eight dosing groups outlined in the Table below as tumours reached mean volumes of approximately 100 mm^3 (approximately 5 weeks from implantation of cells).
Samples of each solution were taken and mixed 1:1 with 50 mM DTPA. 5 μL of each DTPA incubated sample or neat solution was spotted on TLC paper (Agilent iTLC-SG Glass microfiber chromatography paper impregnated with silica gel) and run with 50:50 H2O:ethanol. Detection of radiolabelled species migration was then achieved using an Eckert and Ziegler Mini-Scan and Flow-Count system. […] Control experiments were conducted to monitor the elution behaviour of free ^177Lu and ^177Lu bound to DTPA for quality control. […]

[9] = biological target: T1, HER2 (human epidermal growth factor receptor 2) on cells (human, UniProt P04626 23-1255); assay: flow cytometry (Cy5), SKOV-3 cells, 24 h
T1 construct: whole, on cells; also called ERBB2; HER2 receptor

[10] = biological target: T1, HER2 (human epidermal growth factor …); assay: flow cytometry (Cy5), MDA-MB-231/HER2 cells, 24 h

CS(=O)(=O)CCNCc1ccc(-c2ccc3ncnc(Nc4ccc(OCc5cccc(F)c5)c(Cl)c4)c3c2)o1 [Lapatinib, reference compound]
GI50 (MDA-MB-231 cells [1]; Homo sapiens, MDA-MB-231, 72 h): 112 µM
GI50 (SKOV-3 cells [2]; Homo sapiens, SK-OV-3, 72 h): 7.2 µM
GI50 (SK-Br-3 cells; Homo sapiens, SK-BR-3, 72 h): 0.138 µM
GI50 (NCI-N87 cells; Homo sapiens, NCI-N87, 72 h): 0.0081 µM
GI50 (OE-19 cells; Homo sapiens, OE19, 72 h): 0.2 µM

(MeTzPh)PEG4CO-NHPEG24CO—[N(PN)2][Lys]2[Lys]4[Lys]8[((α-NHCy5)1(α-NHGlu-VC-PAB-MMAE)7)(ε-NH-COPEG1100)8], G3 [Compound 71]
GI50 (MDA-MB-231 cells [1]; MDA-MB-231, MTT, 72 h, Kadcyla based on estimated weight ADC, footnote: based on MMAE drug equivalents): 12.5 µM
GI50 (SKOV-3 cells [2]; SKOV-3, MTT, 72 h, Kadcyla based on estimated weight ADC, footnote: based on MMAE drug equivalents): 1.6 µM
GI50 (SK-Br-3 cells; SK-BR-3, MTT, 72 h, Kadcyla based on estimated weight ADC, footnote: based on MMAE drug equivalents): 0.948 µM
GI50 (NCI-N87 cells; NCI-N87, MTT, 72 h, Kadcyla based on estimated weight ADC, footnote: based on MMAE drug equivalents): 2.04 µM
GI50 (OE-19 cells; OE19, MTT, 72 h, Kadcyla based on estimated weight ADC, footnote: based on MMAE drug equivalents): 6.12 µM
Cell viability % (MDA-MB-231 cells [3]; MDA-MB-231, MMAE concentration 1 × 10^−5 M): 94.2 ± 12.1%
Cell viability % (MDA-MB-231 cells [3]; MDA-MB-231, MMAE concentration 1 × 10^−6 M): 94.4 ± 8.2%
Cell viability % (MDA-MB-231 cells [3]; MDA-MB-231, MMAE concentration 1 × 10^−7 M): 94.2 ± 12.5%
Cell viability % (MDA-MB-231 cells [3]; MDA-MB-231, MMAE concentration 1 × 10^−8 M): 96.6 ± 11.7%
Cell viability % (MDA-MB-231 cells [3]; MDA-MB-231, MMAE concentration 5 × 10^−5 M): 81.1 ± 5.4%
IC50 (MDA-MB-231 cells [3]; MDA-MB-231, alamarBlue, MMAE concentration): Ambiguous
Cell viability % ([4]; MDA-MB-231/HER2, MMAE concentration 1 × 10^−5 M): 61.6 ± 3.1%
Cell viability % ([4]; MDA-MB-231/HER2, MMAE concentration 1 × 10^−6 M): 78.2 ± 9.1%
Cell viability % ([4]; MDA-MB-231/HER2, MMAE concentration 1 × 10^−7 M): 96.1 ± 3.6%
Cell viability % ([4]; MDA-MB-231/HER2, MMAE concentration 1 × 10^−8 M): 95.4 ± 7.6%
Cell viability % ([4]; MDA-MB-231/HER2, MMAE concentration 5 × 10^−5 M): 49.9 ± 15.0%
IC50 ([4]; MDA-MB-231/HER2, alamarBlue, MMAE concentration): 2.84 µM
binding towards cell line (flow cytometry) [5]: minimal binding
mean fluorescence intensity (Cy5) ([6]; MDA-MB-231/HER2, 3.33 nM, 24 h, 37° C., mean±SD, n=3): 16.05±1.89
binding towards cell line (flow cytometry) ([6]; MDA-MB-231/HER2, over 24 h, result in words): minimal binding
mean fluorescence intensity (Cy5) (SKOV-3 cells [7]; SKOV-3, 3.33 nM, 24 h, 37° C., mean±SD, n=3): 16.4±6.86
binding towards cell line (flow cytometry) (SKOV-3 cells [7]; SKOV-3, over 24 h, result in words): minimal binding
association with cells (confocal microscopy) (MDA-MB-231 cells [8]): little

BHALys[Lys]2[Lys]4[Lys]8[Lys]16[Lys]32[(α-NHAc)30(α-NHDOTA)2(ε-NHCOPEG2000)32] [Compound RH-3-160]
suppression of tumour growth (BT474 tumours): effective in suppressing tumour growth

B1: Nanobody*-N3/DBCO-NHCO-PEG12TCO/(MeTzPh)PEG4CO-NHPEG24CO-[N(PN)2][Lys]2[Lys]4[Lys]8[((α-NHCy5)1(α-NHGlu-VC-PAB-MMAE)7)(ε-NH-COPEG1100)8], Compound 123 (VHH)
VHH: EVQLVESGGSLVQPGGSLRLSCAASGFTFDDYAMSWVRQVPGKGLEWVSSINWSGTHTDYADSVKGRFTISRNNANNTLYLQMNSLKSEDTAVYYCAKNWRDAGTTWFEKSGSAGQGTQVTVSS
modifications: C-terminal # (unnatural amino acid, p-azido-phenylalanine) clicked to DBCO-NHCO-PEG12-TCO, joined to the tetrazine at the core of the G3 lysine dendrimer (1 Cy5, 7 Glu-VC-PAB-MMAE, 8 PEG1100)
notes: T0004 r280 names the protein Nanobody*; No synthesis paragraph for this compound; also called 2D3 nanobody targeted dendrimer
fold fluorescence over Compound 71 (untargeted control) [9]: ~16 fold
fold fluorescence over Compound 71 (untargeted control) [10]: ~9 fold

Source: patent publication US20240293588A1, “THERAPEUTIC CONJUGATES” (Starpharma Pty Ltd, priority 2020, published 2024)
